Experimental data: patent US8859549B2, “Potassium channel modulators” (AbbVie, Inc., priority 2011, dated 2014)

Biological target: T1, KCNQ 2/3 channels (Homo sapiens, UniProt O43525+O43526)
T1 construct: expressed in transfected cells; host or cells: HEK293
Assay: KCNQ 2/3 channel activation, thallium flux FLIPR assay (BTC-AM dye)
Type: cell-based
Conditions: for Emax: HEK293, maximum response relative to the response of 10 μM retigabine (set at 100%), HEK293 KCNQ2/KCNQ3 cells, read-out: % MAX; for EC50: HEK293 cells stably expressing human KCNQ2 and KCNQ3 subunits, thallium-induced fluorescence, 4 min compound incubation
Protocol: The following example describes the assay that can be used to identify compounds that activate KCNQ 2/3 channels.
HEK293 cells stably expressing human KCNQ2 and KCNQ3 subunits were seeded in 96-well, black-walled, clear-bottomed, poly-D-lysine coated plates (BD Biosciences, Bedford, Mass.) at a density of 1×10^5 cells per well 24 hours before the assay. On the assay day, BTC-AM dye (Invitrogen, Carlsbad, Calif.) was loaded into the cells by replacing the cell culture medium with 55 μL/well of 3 μg/mL dye in DPBS. Dye loading was allowed to proceed for 2 hours at room temperature and then cells were washed twice with 50 μL/well of assay buffer (in mM: 10 HEPES pH 7.3, 5 glucose, 140 Na-gluconate, 2.5 K-gluconate, 3.6 Ca-gluconate, 2 MgSO4, 0.1 Ouabain) to remove unloaded dye. Cells were incubated in 50 μL of assay buffer before loading onto a FLIPR system (Molecular Devices, Sunnyvale, Calif.). Various concentrations of compounds to be assayed were added to the cells in 50 μL of assay buffer and incubated for 4 minutes. The fluorescence signal was initiated by adding 100 μL of assay buffer containing 6 mM TlNO3 and 10 mM K2SO4. Fluors were excited using the 488-nm line of an argon laser and emission was filtered using a 540±30 nm bandpass filter. Fluorescent signals were recorded for 3 minutes. Sums of the responses over basal responses were plotted versus concentrations of test compounds to obtain an EC50 value. The maximum response for each test compound was determined relative to the response produced by 10 μM retigabine. The maximum response of retigabine at 10 μM was set at 100%.

Structure (SMILES)	Emax [%]	EC50 [nM]
O=C(Cc1cccc(C(F)(F)F)c1)Nn1nc(N2CCOCC2)c2ccccc2c1=O [Example 160, N-[4-(morpholin-4-yl)-1-oxophthalazin-2(1H)-yl]-2-[3-(trifluoromethyl)phenyl]acetamide]	62.1	9680
C[C@@H]1CN(c2nn(NC(=O)Cc3cc(F)cc(F)c3)c(=O)c3ccccc23)C[C@H](C)O1 [Example 88, 2-(3,5-difluorophenyl)-N-{4-[(cis)-2,6-dimethylmorpholin-4-yl]-1-oxophthalazin-2(1H)-yl}acetamide]	107	998
O=C(CC1CC2CCC1C2)Nn1nc(Nc2cccc(Cl)c2)c2ccccc2c1=O (racemic) [Example 35, (±)-2-[(exo)-bicyclo[2.2.1]hept-2-yl]-N-{4-[(3-chlorophenyl)amino]-1-oxophthalazin-2(1H)-yl}acetamide]	11.4	–
O=C(Cc1cc(F)cc(F)c1)Nn1nc(N2CCCC2)c2ccccc2c1=O [Example 20, 2-(3,5-difluorophenyl)-N-[1-oxo-4-(pyrrolidin-1-yl)phthalazin-2(1H)-yl]acetamide]	145	214
CCOC(=O)c1nn(NC(=O)CC2CC3CCC2C3)c(=O)c2ccccc12 (racemic) [Example 51, (±)-ethyl 3-{[(exo)-bicyclo[2.2.1]hept-2-ylacetyl]amino}-4-oxo-3,4-dihydrophthalazine-1-carboxylate]	171	275
CC(C)(C)OC(=O)NCc1nn(NC(=O)CC2CCC(F)(F)CC2)c(=O)c2ccccc12 [Example 124, tert-butyl[(3-{[(4,4-difluorocyclohexyl)acetyl]amino}-4-oxo-3,4-dihydrophthalazin-1-yl)methyl]carbamate]	72.5	8050
CC(C)(C)OC(=O)NCc1nn(NC(=O)CC2CCCCC2)c(=O)c2ccccc12 [Example 126, tert-butyl({3-[(cyclohexylacetyl)amino]-4-oxo-3,4-dihydrophthalazin-1-yl}methyl)carbamate]	25.6	–

The next lines start with the values.

Emax [%]	EC50 [nM]	Structure (SMILES)
2.26	–	CC(C(=O)O)c1nn(NC(=O)Cc2ccc(Cl)cc2)c(=O)c2ccccc12 (stereo not drawn) [Example 110, 2-(3-{[(4-chlorophenyl)acetyl]amino}-4-oxo-3,4-dihydrophthalazin-1-yl)propanoic acid]
134	261	CC(C)(CC(=O)Nn1nc(-c2ccc(Cl)nc2)c2ccccc2c1=O)c1ccccc1 [Example 27, N-[4-(6-chloropyridin-3-yl)-1-oxophthalazin-2(1H)-yl]-3-methyl-3-phenylbutanamide]
37	–	CS(=O)(=O)c1ccc(CC(=O)Nn2nc(S(=O)(=O)c3ccccc3)c3ccccc3c2=O)cc1 [Example 189, 2-[4-(methylsulfonyl)phenyl]-N-[1-oxo-4-(phenylsulfonyl)phthalazin-2(1H)-yl]acetamide]
70.7	17300	O=C(Cc1ccccc1)Nn1nc(N2CCOCC2)c2ccccc2c1=O [Example 111, N-[4-(morpholin-4-yl)-1-oxophthalazin-2(1H)-yl]-2-phenylacetamide]
109	152	O=C(Cc1cc(F)cc(F)c1)Nn1nc(SCc2ccccc2)c2ccccc2c1=O [Example 212, N-[4-(benzylsulfanyl)-1-oxophthalazin-2(1H)-yl]-2-(3,5-difluorophenyl)acetamide]
10.5	–	O=C(Cc1ccc(Cl)cc1)Nn1nc(CCO)c2ccccc2c1=O [Example 121, 2-(4-chlorophenyl)-N-[4-(2-hydroxyethyl)-1-oxophthalazin-2(1H)-yl]acetamide]
131	628	O=C(Cc1ccc(Cl)c(Cl)c1)Nn1nc(N2CCOCC2)c2ccccc2c1=O [Example 177, 2-(3,4-dichlorophenyl)-N-[4-(morpholin-4-yl)-1-oxophthalazin-2(1H)-yl]acetamide]
26.2	–	CCOC(=O)C(NC(=O)Cc1ccc(Cl)cc1)c1nn(NC(=O)Cc2ccc(Cl)cc2)c(=O)c2ccccc12 (stereo not drawn) [Example 117, ethyl{[(4-chlorophenyl)acetyl]amino}(3-{[(4-chlorophenyl)acetyl]amino}-4-oxo-3,4-dihydrophthalazin-1-yl)acetate]
